# Patent US10934276B2, “Positive allosteric modulators of the muscarinic acetylcholine receptor M4” (Vanderbilt University, priority 2016, dated 2021)
# Assays:
# [1] = molecular target: T1, Human M4 (Homo sapiens, UniProt P08173); assay: mAChR M4 cell-based functional assay (calcium flux, potentiation of EC20 acetylcholine response in CHO-K1 hM4-Gqi5 cells); conditions: for Emax at 30 µM: CHO-K1, % ACh maximum at 30 μM, human M4; for EC50: positive allosteric modulator mode, EC20 acetylcholine, CHO-K1 cells with human M4 and Gqi5
# T1 construct: expressed in transfected cells; host or cells: CHO-K1 (ATCC), stably expressing hM4 and Gqi5
# T1 sequence (P08173 1-479): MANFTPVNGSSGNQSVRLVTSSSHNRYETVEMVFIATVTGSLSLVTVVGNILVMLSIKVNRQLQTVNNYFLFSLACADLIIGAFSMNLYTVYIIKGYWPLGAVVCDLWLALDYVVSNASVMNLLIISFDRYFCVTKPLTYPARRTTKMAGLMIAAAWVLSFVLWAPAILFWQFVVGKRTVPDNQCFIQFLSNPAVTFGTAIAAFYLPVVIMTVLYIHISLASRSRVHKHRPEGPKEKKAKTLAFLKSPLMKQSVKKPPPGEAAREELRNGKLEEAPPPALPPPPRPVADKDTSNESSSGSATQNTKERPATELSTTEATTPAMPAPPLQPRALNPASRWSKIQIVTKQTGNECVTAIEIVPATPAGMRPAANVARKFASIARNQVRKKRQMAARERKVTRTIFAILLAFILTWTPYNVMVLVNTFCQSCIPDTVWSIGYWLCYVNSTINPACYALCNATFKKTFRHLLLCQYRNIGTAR
# Method: Human M4 cDNA, along with the chimeric G protein Gqi5, were transfected into Chinese hamster ovary (CHO—K1) cells purchased from the American Type Culture Collection using Lipofectamine2000. hM4-Gqi5 cells were grown in Ham's F-12 medium containing 10% heat-inactivated fetal bovine serum (FBS), 20 mM HEPES, 50 μg/mL G418 sulfate, and 500 μg/mL Hygromycin B. rM4-Gqi5 cells were grown in DMEM containing 10% heat-inactivated FBS, 20 mM HEPES, 400 μg/mL G418 sulfate, and 500 μg/mL Hygromycin B.
# For high throughput measurement of agonist-evoked increases in intracellular calcium, CHO—K1 cells stably expressing muscarinic receptors were plated in growth medium lacking G418 and hygromycin at 15,000 cells/20 μL/well in Greiner 384-well black-walled, tissue culture (TC)-treated, clear-bottom plates (VWR). Cells were incubated overnight at 37° C. and 5% CO2. The next day, cells were washed using an ELX 405 (BioTek) with assay buffer; the final volume was then aspirated to 20 μL. Next, 20 μL of a 2.3 μM stock of Fluo-4/acetoxymethyl ester (Invitrogen, Carlsbad, Calif.), prepared as a 2.3 mM stock in DMSO and mixed in a 1:1 ratio with 10% (w/v) Pluronic F-127 and diluted in assay buffer, was added to the wells and the cell plates were incubated for 50 min at 37° C. and 5% CO2. Dye was removed by washing with the ELX 405 and the final volume was aspirated to 20 μL. Compound master plates were formatted in an 11 point concentration-response curve (CRC) format (1:3 dilutions) in 100% DMSO with a starting concentration of 10 mM using a BRAVO liquid handler (Agilent). Test compound CRCs were then transferred to daughter plates (240 nL) using the Echo acoustic plate reformatter (Labcyte, Sunnyvale, Calif.) and then diluted into assay buffer (40 μL) to a 2× stock using a Thermo Fisher Combi (Thermo Fisher Scientific, Waltham, Mass.).
# Calcium flux was measured using the Functional Drug Screening System (FDSS) 6000 or 7000 (Hamamatsu Corporation, Tokyo, Japan) as an increase in the fluorescent static ratio. Compounds were applied to cells (20 μL, 2×) using the automated system of the FDSS at 2-4 seconds into the protocol and the data were collected at 1 Hz. At 144 seconds, 10 μL of an EC20 concentration of the muscarinic receptor agonist acetylcholine was added (5×), followed by the addition of 12 μL of an EC80 concentration of acetylcholine at the 230 second time point (5×). Agonist activity was analyzed as a concentration-dependent increase in calcium mobilization upon compound addition. Positive allosteric modulator activity was analyzed as a concentration-dependent increase in the EC20 acetylcholine response. With the acetylcholine EC20 set as baseline, the test compound EC50 is determined as the concentration that produces an increase above baseline of 50% of the maximum increase in acetylcholine response elicted by the test compound. Antagonist activity was analyzed as a concentration-dependent decrease in the EC80 acetylcholine response. Concentration-response curves were generated using a four-parameter logistical equation in XLFit curve fitting software (IDBS, Bridgewater, N.J.) for Excel (Microsoft, Redmond, Wash.) or Prism (GraphPad Software, Inc., San Diego, Calif.).
# Compounds were synthesized as described above. Activity (EC50 and Emax) was determined in the mAChR M4 cell-based functional assay as described above and the data are shown in Table 3. The compound numbers correspond to the compound numbers used in Examples 2-4 and Tables 1 and 2.
# [2] = patients treated with AChE inhibitors such as tacrine; cited from earlier work
Structure (SMILES),Emax at 30 µM [1],EC50 [1],patients with elevated liver transaminases (hepatotoxicity) [2]
"Cc1nnc2ccc(C(=O)NC3CN(c4ncc(C5CC5)cc4Cl)C3)cc2c1C [Compound 27, N-[1-(3-chloro-5-cyclopropyl-2-pyridyl)azetidin-3-yl]-3,4-dimethyl-cinnoline-6-carboxamide]",77.2%,1390 nM,
"Cc1nnc2ccc(C(=O)NC3CN(c4ncc(C(F)(F)F)cc4Cl)C3)cc2c1C [Compound 28, N-[1-[3-chloro-5-(trifluoromethyl)-2-pyridyl]azetidin-3-yl]-3,4-dimethyl-cinnoline-6-carboxamide]",75.7%,2630 nM,
"Cc1nnc2ccc(C(=O)NC3CN(c4ncc(C#N)cc4Cl)C3)cc2c1C [Compound 29, N-[1-(3-chloro-5-cyano-2-pyridyl)azetidin-3-yl]-3,4-dimethyl-cinnoline-6-carboxamide]",71.6%,300 nM,
"Cc1nnc2ccc(C(=O)NC3CN(c4cc(Cl)ncc4Cl)C3)cc2c1C [Compound 30, N-[1-(2,5-dichloro-4-pyridyl)azetidin-3-yl]-3,4-dimethyl-cinnoline-6-carboxamide]",91.6%,120 nM,
"Cc1nnc2ccc(C(=O)NC3CN(c4ccc(OC(F)F)nc4)C3)cc2c1C [Compound 31, N-[1-[6-(difluoromethoxy)-3-pyridyl]azetidin-3-yl]-3,4-dimethyl-cinnoline-6-carboxamide]",80.8%,1460 nM,
"Cc1nnc2ccc(C(=O)NC3CN(c4cccc(Cl)n4)C3)cc2c1C [Compound 32, N-[1-(6-chloro-2-pyridyl)azetidin-3-yl]-3,4-dimethyl-cinnoline-6-carboxamide]",77.2%,1320 nM,
"Cc1nnc2ccc(C(=O)NC3CN(c4cccc(F)n4)C3)cc2c1C [Compound 33, N-[1-(6-fluoro-2-pyridyl)azetidin-3-yl]-3,4-dimethyl-cinnoline-6-carboxamide]",84.5%,670 nM,
"Cc1nnc2ccc(C(=O)NC3CN(c4ncccc4F)C3)cc2c1C [Compound 34, N-[1-(3-fluoro-2-pyridyl)azetidin-3-yl]-3,4-dimethyl-cinnoline-6-carboxamide]",83.4%,1220 nM,
"Cc1nnc2ccc(C(=O)NC3CN(c4ncccc4Cl)C3)cc2c1C [Compound 35, N-[1-(3-chloro-2-pyridyl)azetidin-3-yl]-3,4-dimethyl-cinnoline-6-carboxamide]",83.7%,950 nM,
"Cc1nnc2ccc(C(=O)NC3CN(c4ncc(Cl)cc4F)C3)cc2c1C [Compound 36, N-[1-(5-chloro-3-fluoro-2-pyridyl)azetidin-3-yl]-3,4-dimethyl-cinnoline-6-carboxamide]",82%,650 nM,
"Cc1nnc2ccc(C(=O)NC3CN(c4ccnc(C(F)(F)F)c4)C3)cc2c1C [Compound 37, 3,4-dimethyl-N-[1-[2-(trifluoromethyl)-4-pyridyl]azetidin-3-yl]cinnoline-6-carboxamide]",88%,750 nM,
"Cc1nnc2ccc(C(=O)NC3CN(c4cccc(C(F)(F)F)n4)C3)cc2c1C [Compound 38, 3,4-dimethyl-N-[1-[6-(trifluoromethyl)-2-pyridyl]azetidin-3-yl]cinnoline-6-carboxamide]",64.2%,3360 nM,
"Cc1nnc2ccc(C(=O)NC3CC3)cc2c1C [Compound 39, N-cyclopropyl-3,4-dimethyl-cinnoline-6-carboxamide]",82.6%,> 10000 nM,
"Cc1nnc2ccc(C(=O)NC3CC(F)C3)cc2c1C (stereo not shown) [Compound 40, N-(3-fluorocyclobutyl)-3,4-dimethyl-cinnoline-6-carboxamide]",59.3%,> 10000 nM,
"Cc1nnc2ccc(C(=O)NC3CCCC3)cc2c1C [Compound 41, N-cyclopentyl-3,4-dimethyl-cinnoline-6-carboxamide]",53.5%,> 10000 nM,
Nc1c2c(nc3ccccc13)CCCC2 [tacrine],,,about 30%
